Laboratory results as given in PMC10518257 (Nature Cancer, 2023).
Values joined by “and” are separate entries in the source; they are usually repeats but may differ in a detail not shown here. Identical values can stand only once.

How the values were obtained:
LC-2/ad cells = assay: Growth inhibition (alamarBlue, 96 h); format: cell-based, human; settings: for raw viability signal (Source Data Fig. 3b-c): LC-2/Ad, replicate sets
TT cells = assay: Growth inhibition (alamarBlue, 96 h); format: cell-based, human; settings: for raw viability signal (Source Data Fig. 3b-c): replicate sets
LUAD-0057AS1 PDX = assay: PDX efficacy study; settings: 50 mg/kg QD
ECLC5 xenografts = assay: Subcutaneous xenograft efficacy study; settings: 100 mg/kg QD
[1] = end of study, individual tumors

COc1cc2c(Nc3ccc(Br)cc3F)ncnc2cc1OCC1CCN(C)CC1 [Vandetanib]
IC50 (LC-2/ad cells; Homo sapiens, read-out: IC50 for Inhibition of Growth (95% CI), LC-2/ad, alamarBlue, 96 h): 61 nM
raw viability signal (Source Data Fig. 3b-c) (LC-2/ad cells; 0.01 nM): 12607.4 and 20233.4
raw viability signal (Source Data Fig. 3b-c) (LC-2/ad cells; 0.1 nM): 13108.5 and 20488.5
raw viability signal (Source Data Fig. 3b-c) (LC-2/ad cells; 1 nM): 11956.2 and 19814.6
raw viability signal (Source Data Fig. 3b-c) (LC-2/ad cells; 10 nM): 11578.8 and 17158.6
raw viability signal (Source Data Fig. 3b-c) (LC-2/ad cells; 100 nM): 4528.4 and 9691.17
raw viability signal (Source Data Fig. 3b-c) (LC-2/ad cells; 1000 nM): 1439.52 and 1771.38
raw viability signal (Source Data Fig. 3b-c) (LC-2/ad cells; 10000 nM): 850.396
raw viability signal (Source Data Fig. 3b-c) (TT cells; 0.01 nM): 24130.4 and 28596.3 and 33849.7 and 15452.6
raw viability signal (Source Data Fig. 3b-c) (TT cells; 0.1 nM): 23355.5 and 28594.1 and 36565.2
raw viability signal (Source Data Fig. 3b-c) (TT cells; 1 nM): 22374.7 and 27607.6 and 35010.1 and 13701.7
raw viability signal (Source Data Fig. 3b-c) (TT cells; 10 nM): 16858.1 and 26132.6 and 31759.9 and 13240.5 and 11997.4
raw viability signal (Source Data Fig. 3b-c) (TT cells; 100 nM): 9840.2 and 25256.2 and 32238.5 and 11048.8 and 6020.05
raw viability signal (Source Data Fig. 3b-c) (TT cells; 1000 nM): 9436.58 and 12629.1 and 19662.7 and 4747.88 and 2242.82
raw viability signal (Source Data Fig. 3b-c) (TT cells; 10000 nM): 6954.01 and 10117.3 and 4217.75 and 1470.42
IC50 (TT cells; Homo sapiens, read-out: IC50 for Inhibition of Growth (95% CI), alamarBlue, 96 h): 90 nM
Area Under Curve of tumor growth, Mean (LUAD-0057AS1 PDX): -2007
Tumor volume (LUAD-0057AS1 PDX; day 0, individual animals): 143.69 mm3 (3×) and 139.24 mm3 (2×) and 136.86 mm3 and 132.84 mm3 and 124.41 mm3
Tumor volume (LUAD-0057AS1 PDX; day 3, individual animals): 79.85 mm3 and 78.99 mm3 (2×) and 80.35 mm3 and 89.72 mm3 and 82.12 mm3 and 83.53 mm3 (2×)
Tumor volume (LUAD-0057AS1 PDX; day 7, individual animals): 65.45 mm3 (5×) and 66.76 mm3 (2×) and 69.46 mm3
Tumor volume (LUAD-0057AS1 PDX; day 10, individual animals): 52.07 mm3 (2×) and 58.99 mm3 and 57.83 mm3 (3×) and 56.67 mm3 and 49.83 mm3
Tumor volume (LUAD-0057AS1 PDX; day 14, individual animals): 52.07 mm3 (2×) and 55.52 mm3 and 57.83 mm3 (2×) and 56.67 mm3 and 49.83 mm3
Tumor volume (LUAD-0057AS1 PDX; day 19, individual animals): 0 mm3
Tumor volume (LUAD-0057AS1 PDX; day 23, individual animals): 0 mm3
Change in Tumor Volume (LUAD-0057AS1 PDX; [1]): -100%
Area Under Curve of tumor growth, Mean (ECLC5 xenografts): -1273
Tumor volume (ECLC5 xenografts; day 0, individual animals): 83.83 mm3 (2×) and 88.56 mm3 and 87.03 mm3
Tumor volume (ECLC5 xenografts; day 4, individual animals): 55.4 mm3 (2×) and 45.5 mm3 and 53.01 mm3 and 50.68 mm3
Tumor volume (ECLC5 xenografts; day 7, individual animals): 42.25 mm3 and 37.7 mm3 and 44.53 mm3 and 41.37 mm3 and 39.37 mm3
Tumor volume (ECLC5 xenografts; day 11, individual animals): 38.54 mm3 and 37.7 mm3 and 44.53 mm3 and 33.69 mm3 and 31.89 mm3
Tumor volume (ECLC5 xenografts; day 14, individual animals): 36.02 mm3 and 36.86 mm3 and 35.19 mm3 and 28.86 mm3 and 23.59 mm3
Tumor volume (ECLC5 xenografts; day 19, individual animals): 34.35 mm3 and 31 mm3 and 35.19 mm3 and 28.86 mm3 and 18.85 mm3
Tumor volume (ECLC5 xenografts; day 22, individual animals): 0 mm3 (4×) and 29.39 mm3
Tumor volume (ECLC5 xenografts; day 25, individual animals): 0 mm3
Change in Tumor Volume (ECLC5 xenografts; [1]): -100%
